The target of test [1] is GDP-bound KRAS protein (aa 1-169), containing both G12C and C118A amino acid substitutions (Homo sapiens (Human), UniProt P01116, C118A/G12C). Briefly: Coupled nucleotide exchange assay (SOS-mediated nucleotide exchange, AlphaScreen). Type of test: biochemical. Particulars: read-out: Coupled exchange IC50 (5 min; μM); 5 min compound pre-incubation.
Test [2] concerns Phosphorylation of ERK1/2 in MIA PaCa-2 cells. The experiment in a line: Phospho-ERK1/2 MSD assay in MIA PaCa-2 cells. Type of test: cell-based. Particulars: Homo sapiens, MIA PaCa-2, 2 h, read-out: p-ERK IC50 (2 h, MiaPaCa-2; μM), 2 h compound treatment, MIA PaCa-2 cells, EGF stimulated. In a few lines:
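Phospho-ERK1/2 measured by MSD electrochemiluminescence kit in RIPA lysates of MIA PaCa-2 cells. Cells were treated with compound titrations for 2 or 4 h at 37 °C, 5% CO2, followed by a 10 min pulse of 10 ng/mL EGF.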

For test [3], the system named is Phosphorylation of ERK1/2 in A549 cells. Briefly: Phospho-ERK1/2 MSD assay in A549 cells. Format: cell-based. The settings on record: Homo sapiens, A549, 2 h, read-out: p-ERK IC50 (2 h, A549; μM), 2 h compound treatment, A549 cells, EGF stimulated. Summed up: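 Readout: MSD phospho-ERK1/2 signal after compound (2 or 4 h) and 10 min EGF stimulation at 10 ng/mL.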

The values below come from patent US11285156B2, “Substituted piperazines as KRAS G12C inhibitors” (Amgen Inc., priority 2018, dated 2022).

Chain of GDP-bound KRAS protein (aa 1-169), containing both G12C and C118A amino acid substitutions (P01116 other isoform, or with tags, fused parts or gaps G12C/C118A): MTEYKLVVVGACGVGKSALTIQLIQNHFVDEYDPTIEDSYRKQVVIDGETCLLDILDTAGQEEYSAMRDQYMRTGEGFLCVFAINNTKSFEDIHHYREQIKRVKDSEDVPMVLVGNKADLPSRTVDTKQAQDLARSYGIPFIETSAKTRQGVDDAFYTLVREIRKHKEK

As to `C=CC(=O)N1C[C@H](C)N(c2nc(=O)n(CC(C)(C)OC)c3nc(-c4ccccc4F)c(Cl)cc23)C[C@H]1C` [Example 106-4, 6-Chloro-4-[(2S,5R)-2,5-dimethyl-4-prop-2-enoyl-piperazin-1-yl]-7-(2-fluorophenyl)-1-(2-methoxy-2-methyl-propyl)pyrido[2,3-d]pyrimidin-2-one], the IC50 in test [1] was 5.04 µM; in test [2], 2.45 µM; in test [3], > 7.5 µM.
In the case of `C=CC(=O)N1C[C@H](C)N(c2nc(=O)n(-c3c(C)ccnc3C(C)C)c3nc(-c4c(F)cccc4C#N)c(Cl)cc23)C[C@H]1C` (atropisomer, axis not shown; (M)) [Example 92-40, (M)-2-[6-Chloro-4-[(2S,5R)-2,5-dimethyl-4-prop-2-enoyl-piperazin-1-yl]-1-(2-isopropyl-4-methyl-3-pyridyl)-2-oxo-pyrido[2,3-d]pyrimidin-7-yl]-3-fluoro-benzonitrile], the concentration for half-maximal inhibition (IC50) in test [1] is 0.244 µM; in test [2], 0.14 µM; in test [3] it was > 7.5 µM.
On to `C=CC(=O)N1C[C@H](C)N(c2nc(=O)n(-c3c(C(C)C)nc(CN4CCOCC4)nc3C(C)C)c3nc(-c4ccccc4F)c(Cl)cc23)C[C@H]1C` [Example 162, 6-Chloro-1-[4,6-diisopropyl-2-(morpholinomethyl)pyrimidin-5-yl]-4-[(2S,5R)-2,5-dimethyl-4-prop-2-enoyl-piperazin-1-yl]-7-(2-fluorophenyl)pyrido[2,3-d]pyrimidin-2-one], for which the IC50 was 0.133 µM in test [1], 0.078 µM in test [2] and > 7.5 µM in test [3].
As for `C=CC(=O)N1[C@H](C)CN(c2nc(=O)n(-c3c(C)cc(N)nc3C(C)C)c3nc(-c4c(O)cccc4F)c(F)cc23)C[C@@H]1C` (single isomer, unassigned) [Example 123-2], the IC50 in test [1] is 0.4 µM; in test [2], 0.26 µM; in test [3], > 7.5 µM.
The like results for `C=CC(=O)N1C[C@@H](C)N(c2nc(=O)n(-c3c(C)ccnc3C(C)C)c3nc(-c4ccccc4F)c(Cl)nc23)[C@@H](C)C1` [Example 106-7-2, 6-Chloro-4-[(2R,6S)-2,6-dimethyl-4-prop-2-enoyl-piperazin-1-yl]-7-(2-fluorophenyl)-1-(2-isopropyl-4-methyl-3-pyridyl)pteridin-2-one] were, in that order, 0.129 µM, 0.271 µM and > 7.5 µM.
`C=CC(=O)N1C[C@H](C)N(c2nc(=O)n(-c3c(CC)ncnc3C(C)C)c3nc(-c4ccccc4F)c(Cl)cc23)C[C@H]1C` [Example 109-1, 4-((2S,5R)-4-Acryloyl-2,5-dimethylpiperazin-1-yl)-6-chloro-1-(4-ethyl-6-isopropylpyrimidin-5-yl)-7-(2-fluorophenyl)pyrido[2,3-d]pyrimidin-2(1H)-one]: the IC50 in test [1] is 0.194 µM; in test [2], 0.052 µM; in test [3], > 7.5 µM.
`C=CC(=O)N1C[C@H](C)N(c2nc(=O)n(-c3c(C)cc(CN(C)C)nc3C(C)C)c3nc(-c4ccccc4F)c(Cl)cc23)C[C@H]1C` [Example 121-1, 4-((2S,5R)-4-Acryloyl-2,5-dimethylpiperazin-1-yl)-6-chloro-1-(6-((dimethylamino)methyl)-2-isopropyl-4-methylpyridin-3-yl)-7-(2-fluorophenyl)pyrido[2,3-d]pyrimidin-2(1H)-one]: the IC50 is 0.195 µM in test [1], 0.086 µM in test [2] and > 7.5 µM in test [3].
The like results for `C=CC(=O)N1C[C@H](C)N(c2nc(=O)n(-c3c(C(C)C)cnnc3C(C)C)c3nc(-c4ccccc4F)c(Cl)cc23)C[C@H]1C` [Example 205, 4-((2S,5R)-4-Acryloyl-2,5-dimethylpiperazin-1-yl)-6-chloro-1-(3,5-diisopropylpyridazin-4-yl)-7-(2-fluorophenyl)pyrido[2,3-d]pyrimidin-2(1H)-one] were, in that order, 0.08 µM, 0.095 µM and > 7.5 µM.

As a reminder, the IC50 is the concentration at which inhibition is half-maximal.
